# Data taken from ChEMBL document CHEMBL3399978, “Synthesis and optimization of picolinamide derivatives as a novel class of 11β-hydroxysteroid dehydrogenase type 1 (11β-HSD1) inhibitors” (Bioorg Med Chem Lett, 2015).
# The source made the active and inactive calls. The calls are words filed in the database; no cut-off is given here.
# Tests used:
# [1] = Metabolic stability in mouse liver microsomes assessed as compound remaining after 30 mins; type: ADME; details: read-out: Stability
# [2] = target: T1, 11-beta-hydroxysteroid dehydrogenase 1 (Homo sapiens, UniProt P28845); test: Inhibition of human 11beta-HSD1 using microsomal fraction and NADPH assessed as conversion of cortisone to cortisol by biochemical enzyme assay
# [3] = target: T1, 11-beta-hydroxysteroid dehydrogenase 1; test: Inhibition of human 11beta-HSD1 expressed in HEK293 cells using NADPH assessed as conversion of cortisone to cortisol by cell-based assay
# [4] = target: 11-beta-hydroxysteroid dehydrogenase 1 (Mus musculus, UniProt P50172); test: Inhibition of mouse 11beta-HSD1 using microsomal fraction and NADPH assessed as conversion of cortisone to cortisol by biochemical enzyme assay
# [5] = target: T2, 11-beta-hydroxysteroid dehydrogenase type 2 (Homo sapiens, UniProt P80365); test: Inhibition of human 11beta-HSD2 using microsomal fraction and NADPH assessed as conversion of cortisone to cortisol by biochemical enzyme assay
# T2 sequence (P80365 whole entry): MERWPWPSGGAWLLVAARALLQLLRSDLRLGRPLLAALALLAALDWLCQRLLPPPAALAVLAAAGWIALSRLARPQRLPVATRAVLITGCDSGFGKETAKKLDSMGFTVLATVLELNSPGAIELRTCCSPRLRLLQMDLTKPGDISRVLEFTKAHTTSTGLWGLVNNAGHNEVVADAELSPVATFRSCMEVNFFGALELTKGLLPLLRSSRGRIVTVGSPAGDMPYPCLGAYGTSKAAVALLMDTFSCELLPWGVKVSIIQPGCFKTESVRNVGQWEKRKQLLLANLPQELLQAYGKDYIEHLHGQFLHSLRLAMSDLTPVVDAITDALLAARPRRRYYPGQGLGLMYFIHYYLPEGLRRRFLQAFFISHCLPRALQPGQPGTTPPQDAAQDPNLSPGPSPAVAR
# [6] = Clearance in mouse at 5 mg/kg, iv; type: ADME, organism-based; parameters: dose 5 mg/kg, route intravenous; details: in vivo
# [7] = Oral bioavailability in mouse at 20 mg/kg; type: ADME, organism-based; details: in vivo
# Mus musculus [8] = test: Ex vivo inhibition of 11beta-HSD1 in male C57BL/6 mouse liver assessed as conversion of cortisone to cortisol at 30 mg/kg, po after 2 hrs by enzyme immunoassay; type: functional; details: C57BL/6, Liver
# Mus musculus [9] = test: Ex vivo inhibition of 11beta-HSD1 in male C57BL/6 mouse liver assessed as conversion of cortisone to cortisol at 30 mg/kg, po after 6 hrs by enzyme immunoassay; type: functional; details: C57BL/6, Liver
# Mus musculus [10] = test: Ex vivo inhibition of 11beta-HSD1 in male C57BL/6 mouse epididymal fat assessed as conversion of cortisone to cortisol at 30 mg/kg, po after 2 hrs by enzyme immunoassay; type: functional; details: C57BL/6, 2 h
# Mus musculus [11] = test: Ex vivo inhibition of 11beta-HSD1 in male C57BL/6 mouse epididymal fat assessed as conversion of cortisone to cortisol at 30 mg/kg, po after 6 hrs by enzyme immunoassay; type: functional; details: C57BL/6, 6 h
# Mus musculus [12] = test: Reduction in non-fasting blood glucose level in ob/ob type 2 diabetic mouse model at 10 mg/kg, po once daily after 10 days relative to vehicle treated control; type: functional; details: 240 h
# Mus musculus [13] = test: Reduction in LDL cholesterol level in ob/ob type 2 diabetic mouse model at 10 mg/kg, po once daily after 10 days relative to vehicle treated control; type: functional, organism-based; parameters: dose 10 mg/kg
# Mus musculus [14] = test: Reduction in triglyceride level in ob/ob type 2 diabetic mouse model at 10 mg/kg, po once daily after 10 days relative to vehicle treated control; type: functional, organism-based; parameters: dose 10 mg/kg
# Mus musculus [15] = test: Toxicity in ob/ob type 2 diabetic mouse model assessed as HDL cholesterol at 10 mg/kg, po once daily after 10 days relative to vehicle treated control; type: organism-based; parameters: dose 10 mg/kg, route oral; details: in vivo, 240 h
# Mus musculus [16] = test: Toxicity in ob/ob type 2 diabetic mouse model assessed as food intake at 10 mg/kg, po once daily after 10 days relative to vehicle treated control; type: organism-based; parameters: dose 10 mg/kg, route oral; details: in vivo, 240 h
# Mus musculus [17] = test: Toxicity in ob/ob type 2 diabetic mouse model assessed as body weight at 10 mg/kg, po once daily after 10 days relative to vehicle treated control; type: organism-based; parameters: dose 10 mg/kg, route oral; details: in vivo, 240 h
# 11-beta-hydroxysteroid dehydrogenase 1 (Mus musculus, UniProt P50172), sequence (P50172 whole entry): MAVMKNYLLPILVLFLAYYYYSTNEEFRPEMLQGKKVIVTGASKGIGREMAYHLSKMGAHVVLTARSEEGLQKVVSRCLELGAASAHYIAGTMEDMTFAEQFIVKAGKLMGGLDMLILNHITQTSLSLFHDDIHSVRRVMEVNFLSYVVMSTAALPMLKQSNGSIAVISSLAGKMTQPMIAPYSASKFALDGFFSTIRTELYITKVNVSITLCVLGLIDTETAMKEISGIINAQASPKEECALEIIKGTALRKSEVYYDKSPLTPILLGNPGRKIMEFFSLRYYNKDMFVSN
# T1 sequence (P28845 whole entry): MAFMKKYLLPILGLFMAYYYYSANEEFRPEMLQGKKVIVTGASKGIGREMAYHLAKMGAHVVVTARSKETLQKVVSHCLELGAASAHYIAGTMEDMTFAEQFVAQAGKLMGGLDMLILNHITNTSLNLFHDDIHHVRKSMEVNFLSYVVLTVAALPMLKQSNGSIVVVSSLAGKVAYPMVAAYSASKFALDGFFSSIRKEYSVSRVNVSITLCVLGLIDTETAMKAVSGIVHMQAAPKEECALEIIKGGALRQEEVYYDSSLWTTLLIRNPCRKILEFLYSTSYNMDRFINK
smiles,measurement,setting,value
O=C(N[C@H]1C2CC3CC1C[C@](O)(C3)C2)c1cccc(N2CCN(c3ccc(Cl)cc3)CC2)n1,remaining at 0.5 h,[1],69%
CNC(=O)c1ccc(N2CCN(c3cccc(C(=O)N[C@H]4C5CC6CC4C[C@](O)(C6)C5)n3)[C@H](C)C2)cc1,remaining at 0.5 h,[1],61%
O=C(N[C@H]1C2CC3CC1C[C@](O)(C3)C2)c1cccc(N2CCN(c3ccc(C(F)(F)F)cc3)CC2)n1,remaining at 0.5 h,[1],79%
C[C@@H]1CN(c2ccc(C#N)cc2)CCN1c1cccc(C(=O)N[C@H]2C3CC4CC2C[C@](O)(C4)C3)n1,remaining at 0.5 h,[1],84%
CS(=O)(=O)c1ccc(N2CCN(c3cccc(C(=O)N[C@H]4C5CC6CC4C[C@](O)(C6)C5)n3)CC2)cc1,IC50,[2],1.6 nM
same,IC50,[3],3.9 nM
same,IC50,[4],2.5 nM
same,IC50,[5],> 10000 nM
same,remaining at 0.5 h,[1],87%
same,clearance,[6],1.78 L/h/kg
same,bioavailability,[7],17%
same,inhibition in vivo at 30 mg/kg,Mus musculus [8],53%
same,inhibition in vivo at 30 mg/kg,Mus musculus [9],15%
same,inhibition in vivo at 30 mg/kg,Mus musculus [10],70%
same,inhibition in vivo at 30 mg/kg,Mus musculus [11],22%
NC(=O)c1ccc(N2CCN(c3cccc(C(=O)N[C@H]4C5CC6CC4C[C@](O)(C6)C5)n3)CC2)cc1,remaining at 0.5 h,[1],65%
COc1ccc(N2CCN(c3cccc(C(=O)N[C@H]4C5CC6CC4C[C@](O)(C6)C5)n3)[C@H](C)C2)cc1,remaining at 0.5 h,[1],80%
Cc1ccc(N2CCN(c3cccc(C(=O)N[C@H]4C5CC6CC4C[C@](O)(C6)C5)n3)CC2)cc1,remaining at 0.5 h,[1],74%
COc1ccc(N2CCN(c3cccc(C(=O)N[C@H]4C5CC6CC4C[C@](O)(C6)C5)n3)[C@@H](C)C2)cc1,remaining at 0.5 h,[1],77%
N#Cc1ccc(N2CCN(c3cccc(C(=O)N[C@H]4C5CC6CC4C[C@](O)(C6)C5)n3)CC2)nc1,remaining at 0.5 h,[1],81%
N#Cc1ccc(N2CCC(c3cccc(C(=O)N[C@H]4C5CC6CC4C[C@](O)(C6)C5)n3)CC2)cc1,remaining at 0.5 h,[1],58%
C[C@H]1CN(c2ccc(C#N)cc2)CCN1c1cccc(C(=O)N[C@H]2C3CC4CC2C[C@](O)(C4)C3)n1,remaining at 0.5 h,[1],82%
Nc1ccc(N2CCN(c3cccc(C(=O)N[C@H]4C5CC6CC4C[C@](O)(C6)C5)n3)CC2)cc1,remaining at 0.5 h,[1],97%
N#Cc1ccc(C2CCN(c3cccc(C(=O)N[C@H]4C5CC6CC4C[C@](O)(C6)C5)n3)CC2)cc1,remaining at 0.5 h,[1],46%
C[C@@H]1CN(c2ccc(S(C)(=O)=O)cc2)CCN1c1cccc(C(=O)N[C@H]2C3CC4CC2C[C@](O)(C4)C3)n1,IC50,[2],2.2 nM
same,IC50,[3],3.1 nM
same,IC50,[4],1.8 nM
same,IC50,[5],> 10000 nM
same,remaining at 0.5 h,[1],97%
same,clearance,[6],0.85 L/h/kg
same,bioavailability,[7],41%
same,inhibition in vivo at 30 mg/kg,Mus musculus [8],85%
same,inhibition in vivo at 30 mg/kg,Mus musculus [9],77%
same,inhibition in vivo at 30 mg/kg,Mus musculus [10],95%
same,inhibition in vivo at 30 mg/kg,Mus musculus [11],86%
same,inhibition in vivo at 10 mg/kg,Mus musculus [12],41%
same,inhibition,Mus musculus [13],Active
same,inhibition,Mus musculus [14],Active
same,Activity,Mus musculus [15],Non-toxic
same,Activity,Mus musculus [16],Non-toxic
same,Activity,Mus musculus [17],Non-toxic
N#Cc1ccc(N2CCC(c3cccc(C(=O)N[C@H]4C5CC6CC4C[C@](O)(C6)C5)n3)CC2)nc1,remaining at 0.5 h,[1],52%
C[C@@H]1CN(c2ccc(C(C)(C)O)cc2)CCN1c1cccc(C(=O)N[C@H]2C3CC4CC2C[C@](O)(C4)C3)n1,IC50,[2],4.1 nM
same,IC50,[3],4.9 nM
same,IC50,[4],6.6 nM
same,IC50,[5],> 10000 nM
same,remaining at 0.5 h,[1],84%
same,clearance,[6],0.46 L/h/kg
same,bioavailability,[7],32%
same,inhibition in vivo at 30 mg/kg,Mus musculus [8],73%
same,inhibition in vivo at 30 mg/kg,Mus musculus [9],58%
same,inhibition in vivo at 30 mg/kg,Mus musculus [10],94%
same,inhibition in vivo at 30 mg/kg,Mus musculus [11],77%
N#Cc1ccc(C2CCN(c3cccc(C(=O)N[C@H]4C5CC6CC4C[C@](O)(C6)C5)n3)CC2)nc1,remaining at 0.5 h,[1],63%
NC(=O)c1ccc(N2CCN(c3cccc(C(=O)N[C@H]4C5CC6CC4C[C@](O)(C6)C5)n3)CC2)cc1F,remaining at 0.5 h,[1],28%
C[C@@H]1CN(c2ccc(C(N)=O)cc2)CCN1c1cccc(C(=O)N[C@H]2C3CC4CC2C[C@](O)(C4)C3)n1,remaining at 0.5 h,[1],57%
O=C(N[C@H]1C2CC3CC1C[C@](O)(C3)C2)c1cccc(N2CCN(c3ccc([N+](=O)[O-])cc3)CC2)n1,remaining at 0.5 h,[1],74%
N#Cc1ccc(N2CCN(c3cccc(C(=O)N[C@H]4C5CC6CC4C[C@](O)(C6)C5)n3)CC2)c(Cl)c1,remaining at 0.5 h,[1],88%
COc1ccc(N2CCN(c3cccc(C(=O)N[C@H]4C5CC6CC4C[C@](O)(C6)C5)n3)CC2)cc1,remaining at 0.5 h,[1],86%
N#Cc1ccc(N2CCN(c3cccc(C(=O)N[C@H]4C5CC6CC4C[C@](O)(C6)C5)n3)CC2)cc1,bioavailability,[7],5%
same,inhibition in vivo at 30 mg/kg,Mus musculus [9],< 10%
same,inhibition in vivo at 30 mg/kg,Mus musculus [11],< 10%
N#Cc1ccc(N2CCN(c3cccc(C(=O)N[C@H]4C5CC6CC4C[C@](O)(C6)C5)n3)CC2)cc1F,remaining at 0.5 h,[1],79%
C[C@H]1CN(c2ccc(S(C)(=O)=O)cc2)CCN1c1cccc(C(=O)N[C@H]2C3CC4CC2C[C@](O)(C4)C3)n1,IC50,[2],4.2 nM
same,IC50,[3],6.8 nM
same,remaining at 0.5 h,[1],88%
NC(=O)c1ccc(N2CCN(c3cccc(C(=O)N[C@H]4C5CC6CC4C[C@](O)(C6)C5)n3)CC2)c(Cl)c1,remaining at 0.5 h,[1],32%
O=C(N[C@H]1C2CC3CC1C[C@](O)(C3)C2)c1cccc(N2CCN(c3ccc(F)cc3)CC2)n1,remaining at 0.5 h,[1],73%
